Reference: patent US20250368628A1, “METHODS AND COMPOUNDS FOR MODULATING INHERITED GENETIC DISEASES” (Design Therapeutics, Inc., priority 2022, published 2025)
pEC50: −log10 of the molar value.

These compounds were tested on Myotonic Dystrophy 1 affected patient fibroblasts (Coriel GM04602; 1600 CTG repeats) (assay: DM1 foci reduction assay (EC50 assay; CAG10-Cy3 FISH, foci per nucleus)). Settings: Homo sapiens, Fibroblast; DM1 patient fibroblasts, 48 h treatment, foci per nucleus; read-out: DM1 EC50, 48 h.
Format: cell-based
Procedure: DM1 Foci Reduction Assay Methods
Myotonic Dystrophy 1 affected patient fibroblasts (Coriel GM04602; 1600 CTG repeats) and wild type fibroblasts (Coriell GM07492; control line) were cultured separately in Gibco DMEM (1×)+4.5 g/L D-Glucose+L-Glutamine+[…] Sodium Pyruvate, supplemented with 10% FBS and 1× Pen/Strep. Cells were maintained in an incubator at 37° C. and 5% CO2 with media refreshed every 48-72 hours.
At 90-95% confluency, both cell lines were harvested using Trypl-E then pelleted at 500×g for 5 minutes and were resuspended in fresh media. DM1 fibroblasts were seeded in Agilent 96 well black plates at a density of 5,000 cells/well in 200 μL media; and 8 wells were reserved for control fibroblasts. Plates were returned to incubator for 24 hours at 37° C. and 5% CO2.
Compounds were diluted from 10 mM stock to 1 mM in DMSO and then diluted once more to 6 μM (2× concentration) in media. Media was removed from all plates and cells were replenished with 100 μL media. Cells were treated in 8-point dose response, 1:3 fold dilution, 3 μM top dose via addition of 100 μL of 6 μM (2× concentration) compound to the 100 μL media with cells. Plates were returned to incubator for 48 hours at 37° C. and 5% CO2.
Following treatment, compounds were removed, and plates were washed with PBS, then cells were fixed in 75 μL 4% PFA solution for 20 minutes at room temperature. Plates were washed twice with PBS and twice with cold 70% ethanol before permeabilization with 250 μL cold 70% ethanol for 24-72 hours at −20° C.
After permeabilization, plates were washed once with a 30% formamide and 2×SSC buffer and rehydrated in that buffer for 15 minutes at room temperature. Cells were incubated overnight at 37° C. in 75 μL of a hybridization solution containing 30% formamide, 2×SSC, 25 mg/mL dextran sulfate, 2.5 mg/mL BSA, 0.2 μg/mL Herring sperm DNA, 2 mM vanadyl-ribonucleoside complex, and 5 nM CAG10-Cy3 probe.
Plates were washed once with 30% formamide in 2×SSC buffer, then twice with the buffer for 30 minutes at 37° C., 300 RPM in an incubating plate shaker. Cells were stained with 75 μL of 2.5 μg/mL DAPI in PBS for 5 minutes at room temperature. Plates were then washed twice with PBS and stored in 250 μL PBS. Plates were sealed with adhesive foil and wiped down with 70% ethanol.
Cells were imaged on a Cytation5 with a 20× objective sampling from 4 areas of each well. Nuclei were captured under DAPI channel and foci under RFP channel. Plates were analyzed on an average foci per nucleus per well basis.

Compound | pEC50
CCCNC(=O)CCNC(=O)c1nc(NC(=O)c2cc(NC(=O)CCNC(=O)c3nc(NC(=O)CCCNC(=O)c4cc(NC(=O)c5nc(NC(=O)CCNC(=O)c6cc(NC(=O)c7nccn7C)c[nH]6)cn5C)c[nH]4)cn3C)c[nH]2)cn1C [Compound B-62] | < 6.00
Cn1cc(NC(=O)c2nc(NC(=O)CCNC(=O)c3cc(NC(=O)c4nccn4C)cn3C)cn2C)cc1C(=O)NCCCC(=O)Nc1cn(C)c(C(=O)NCCC(=O)Nc2cc(C(=O)Nc3cn(C)c(C(=O)NCCC(=O)NCCOCCOCCOCCN4CCC(C#CC#CC5CCN(Cc6ccc(C(C)(C)C)cc6)CC5)CC4)n3)n(C)c2)n1 [Compound B-176] | < 6.00
CCN(CC)CCCC[C@H](NC(=O)c1ccccc1)C(=O)NCCOCCOCCOCCOCCOCCNC(=O)c1nc(NC(=O)c2cc(NC(=O)CCNC(=O)c3nc(NC(=O)CCCNC(=O)c4cc(NC(=O)c5nc(NC(=O)CCNC(=O)c6cc(NC(=O)c7nccn7C)cn6C)cn5C)cn4C)cn3C)cn2C)cn1C [Compound B-219] | 6.00 to 6.30
Cn1cc(NC(=O)c2nc(NC(=O)CCNC(=O)c3cc(NC(=O)c4nccn4C)cn3C)cn2C)cc1C(=O)NCCCC(=O)Nc1cn(C)c(C(=O)NCCC(=O)Nc2cc(C(=O)Nc3cn(C)c(C(=O)NCCC(=O)NCCOCCN4CCN(C5CCN(c6ccc(N)cc6)CC5)CC4)n3)n(C)c2)n1 [Compound B-155] | < 6.00
Cn1cc(NC(=O)c2nc(NC(=O)CCNC(=O)c3cc(NC(=O)c4nccn4C)cn3C)cn2C)cc1C(=O)NCCCC(=O)Nc1cn(C)c(C(=O)NCCC(=O)Nc2cc(C(=O)Nc3cn(C)c(C(=O)NCCC(=O)N4CCC(N5CCN(CCOCCOCCOCCOCCN)CC5)CC4)n3)n(C)c2)n1 [Compound B-24] | < 6.00
CCCCCCN1CCC(C#CC#CC2CCN(CCCCCNC(=O)CCNC(=O)c3nc(NC(=O)c4cc(NC(=O)CCNC(=O)c5nc(NC(=O)CCCNC(=O)c6cc(NC(=O)c7nc(NC(=O)CCNC(=O)c8cc(NC(=O)c9nccn9C)cn8C)cn7C)cn6C)cn5C)cn4C)cn3C)CC2)CC1 [Compound B-183] | < 6.00
CN(CCCNC(=O)OC(C)(C)C)CCCNC(=O)c1cc(NC(=O)CCNC(=O)c2nc(NC(=O)CCCNC(=O)c3cc(NC(=O)c4nc(NC(=O)CCNC(=O)c5cc(NC(=O)c6nccn6C)cn5C)cn4C)cn3CCCCCCN=[N+]=[N-])cn2C)cn1C [Compound B-357] | < 6.00
CCCNC(=O)c1cc(NC(=O)c2nc(NC(=O)CCCNC(=O)c3cc(NC(=O)c4nc(NC(=O)CCNC(=O)c5cc(NC(=O)c6nccn6C)cn5C)cn4C)cn3C)cn2C)cn1C [Compound B-67] | < 6.00
Cn1cc(NC(=O)c2nc(NC(=O)CCNC(=O)c3cc(NC(=O)c4nccn4C)cn3C)cn2C)cc1C(=O)NCCCC(=O)Nc1cn(C)c(C(=O)NCCC(=O)Nc2cc(C(=O)Nc3cn(C)c(C(=O)NCCC(=O)NCC#N)n3)n(C)c2)n1 [Compound B-112] | 6.00 to 6.30
Cn1cc(NC(=O)c2nc(NC(=O)CCNC(=O)c3cc(NC(=O)c4nccn4C)cn3C)cn2C)cc1C(=O)NCCCC(=O)Nc1cn(C)c(C(=O)NCCC(=O)Nc2cc(C(=O)Nc3cn(C)c(C(=O)N4CC(c5cnc(CNC(=O)OCc6ccccc6)[nH]5)C4)n3)n(C)c2)n1 [Compound B-201] | < 6.00
Cn1cc(NC(=O)c2nc(NC(=O)CCNC(=O)c3cc(NC(=O)c4nccn4C)cn3C)cn2C)cc1C(=O)NCCCC(=O)Nc1cn(C)c(C(=O)NCCC(=O)Nc2cc(C(=O)Nc3cn(C)c(C(=O)NCCC(=O)NCCOCCN4CCN(C5CCN(c6ccc([N+](=O)[O-])cc6)CC5)CC4)n3)n(C)c2)n1 [Compound B-26] | < 6.00
COC(=O)c1cccc(CCCCCN(C)CCCNC(=O)c2nc(NC(=O)c3cc(NC(=O)CCNC(=O)c4nc(NC(=O)CCCNC(=O)c5cc(NC(=O)c6nc(NC(=O)CCNC(=O)c7cc(NC(=O)c8nccn8C)cn7C)cn6C)cn5C)cn4C)cn3C)cn2C)c1 [Compound B-340] | > 7.00
Cn1cc(NC(=O)c2nc(NC(=O)CCNC(=O)c3cc(NC(=O)c4nccn4C)cn3C)cn2C)cc1C(=O)NCCCC(=O)Nc1cn(C)c(C(=O)NCCC(=O)Nc2cc(C(=O)Nc3cn(C)c(C(=O)NCCOCCOCCOc4cncc(C(=O)O)c4)n3)n(C)c2)n1 [Compound B-216] | < 6.00
CCN(CC)CCCC[C@@H](NC(C)=O)C(=O)NCCOCCOCCNC(=O)CCNC(=O)c1nc(NC(=O)CCNC(=O)c2cc(NC(=O)c3nc(NC(=O)CCCNC(=O)c4cc(NC(=O)c5nc(NC(=O)CCNC(=O)c6cc(NC(C)c7nccn7C)cn6C)cn5C)cn4C)cn3C)cn2C)cn1C (stereo partly drawn) [Compound B-97] | 6.30 to 7.00
CN(C)CCCCCNC(=O)CCNC(=O)c1nc(NC(=O)c2cc(NC(=O)CCNC(=O)c3nc(NC(=O)CCCNC(=O)c4cc(NC(=O)c5nc(NC(=O)CCNC(=O)c6cc(NC(=O)c7nccn7C)cn6C)cn5C)cn4C)cn3C)cn2C)cn1C [Compound B-41] | 6.30 to 7.00
CN(C)CC#CC#Cc1ccc(NC(=O)CCNC(=O)c2nc(NC(=O)c3cc(NC(=O)CCNC(=O)c4nc(NC(=O)CCCNC(=O)c5cc(NC(=O)c6nc(NC(=O)CCNC(=O)c7cc(NC(=O)c8nccn8C)cn7C)cn6C)cn5C)cn4C)cn3C)cn2C)cc1 [Compound B-139] | < 6.00
CN(C)C(=O)c1nc(NC(=O)c2cc(NC(=O)CCNC(=O)c3nc(NC(=O)CCCNC(=O)c4cc(NC(=O)c5nc(NC(=O)CCNC(=O)c6cc(NC(=O)c7nccn7C)cn6C)cn5C)cn4C)cn3C)cn2C)cn1C [Compound B-314] | < 6.00
Cn1cc(NC(=O)c2nc(NC(=O)CCNC(=O)c3cc(NC(=O)c4nccn4C)cn3C)cn2C)cc1C(=O)NCCCC(=O)Nc1cn(C)c(C(=O)NCCC(=O)Nc2cc(C(=O)Nc3cn(C)c(C(=O)NCCC(=O)Nc4ccc(C(C)(C)C)cc4)n3)n(C)c2)n1 [Compound B-180] | < 6.00
Cn1cnc(NC(=O)c2cc(NC(=O)CCNC(=O)c3nc(NC(=O)CCCNC(=O)c4cc(NC(=O)c5nc(NC(=O)CCNC(=O)c6cc(NC(=O)c7nccn7C)cn6C)cn5C)cn4CCCCCCN=[N+]=[N-])cn3C)cn2C)c1 [Compound B-252] | < 6.00
Cn1cc(NC(=O)c2nc(NC(=O)CCNC(=O)c3cc(NC(=O)c4nccn4C)cn3C)cn2C)cc1C(=O)NCCCC(=O)Nc1cn(C)c(C(=O)NCCC(=O)Nc2cc(C(=O)Nc3cn(C)c(C(=O)NCCC(=O)NC4CCCCC4)n3)n(C)c2)n1 [Compound B-53] | 6.30 to 7.00
CCN(CC)CCCC[C@@H](NC(=O)C1CCNCC1)C(=O)NCCOCCOCCOCCOCCOCCNC(=O)CCNC(=O)c1nc(NC(=O)c2cc(NC(=O)CCNC(=O)c3nc(NC(=O)CCCNC(=O)c4cc(NC(=O)c5nc(NC(=O)CCNC(=O)c6cc(NC(=O)c7nccn7C)cn6C)cn5C)cn4C)cn3C)cn2C)cn1C [Compound B-101] | < 6.00
CCCNC(=O)c1cc(NC(=O)c2nc(NC(=O)CCNC(=O)c3cc(NC(=O)c4nc(NC(=O)[C@H](N)CCNC(=O)c5cc(NC(=O)c6nc(NC(=O)CCNC(=O)c7cc(NC(=O)c8nccn8C)cn7C)cn6C)cn5C)cn4C)cn3C)cn2C)cn1C [Compound B-6] | 6.00 to 6.30
Cn1cc(NC(=O)c2nc(NC(=O)CCNC(=O)c3cc(NC(=O)c4nccn4C)cn3C)cn2C)cc1C(=O)NCCCC(=O)Nc1cn(C)c(C(=O)NCCC(=O)Nc2cc(C(=O)Nc3cn(C)c(C(=O)NCCC(=O)NCCCCCN4CCC(C#CC#CC5CCNCC5)CC4)n3)n(C)c2)n1 [Compound B-336] | < 6.00
CC(=O)N1CCN(C2CCN(C(=O)CCNC(=O)c3nc(NC(=O)c4cc(NC(=O)CCNC(=O)c5nc(NC(=O)CCCNC(=O)c6cc(NC(=O)c7nc(NC(=O)CCNC(=O)c8cc(NC(=O)c9nccn9C)cn8C)cn7C)cn6C)cn5C)cn4C)cn3C)CC2)CC1 [Compound B-130] | 6.30 to 7.00
Cn1cc(NC(=O)c2nc(NC(=O)c3cc(NC(=O)CCNC(=O)c4nccn4C)cn3C)cn2C)cc1C(=O)NCCCC(=O)Nc1cn(C)c(C(=O)NCCC(=O)Nc2cc(C(=O)Nc3cn(C)c(C(=O)NCCC(=O)NCCCCN=[N+]=[N-])n3)n(C)c2)n1 [Compound B-84] | < 6.00
Cn1cc(NC(=O)c2nc(NC(=O)CCNC(=O)c3cc(NC(=O)c4nccn4C)cn3C)cn2C)cc1C(=O)NCCCC(=O)Nc1cn(C)c(C(=O)NCCC(=O)Nc2cc(C(=O)Nc3cn(C)c(C(=O)NCCC(=O)NCC#CC#CC4CCN(Cc5ccc(C(C)(C)C)cc5)CC4)n3)n(C)c2)n1 [Compound B-189] | < 6.00
CCN(CC)CCCC[C@H](NC(=O)c1cccc(C(=O)OC(C)(C)C)c1)C(=O)NCCOCCOCCOCCNC(=O)c1nc(NC(=O)c2cc(NC(=O)CCNC(=O)c3nc(NC(=O)CCCNC(=O)c4cc(NC(=O)c5nc(NC(=O)CCNC(=O)c6cc(NC(=O)c7nccn7C)cn6C)cn5C)cn4C)cn3C)cn2C)cn1C [Compound B-353] | 6.30 to 7.00
